{
  "source": "paper PMC11087982",
  "about": "“In vitro and in vivo activities of a trithiolato-diRuthenium complex conjugated with sulfadoxine against the apicomplexan parasite Toxoplasma gondii” (International Journal for Parasitology: Drugs and Drug …, 2024)",
  "key": {"[1]": {"test_system": "T. gondii β-gal tachyzoites", "experiment": "T. gondii β-Gal tachyzoite proliferation in HFF monolayers (β-galactosidase fluorometric assay)", "assay_type": "cell-based, Toxoplasma gondii", "description": "Effects of drugs on the proliferative capacity of T. gondii tachyzoites were investigated using a transgenic T. gondii RH strain constitutively expressing β-Galactosidase (T. gondii β-Gal ([Dc et al., 1997]);). Assays were carried out in 96 well plates in the presence or absence of the different compounds. For the quantification of β-Galactosidase activity, a fluorometric assay was applied as previously described ([Desiatkina et al., 2021]; [Păunescu et al., 2021])."}, "HFF": {"test_system": "HFF", "experiment": "HFF host cell cytotoxicity, Alamar blue viability assay", "assay_type": "cell-based, human", "details": "72 h, uninfected HFF", "description": "To determine cytotoxicity of compounds on host cells, HFF were grown to confluency in 96 well plates and were treated with different concentrations of the drugs solubilized in medium during 72 h at 37 °C/5% CO2, or were treated with the corresponding concentration of DMSO only ([Desiatkina et al., 2020]; [Holzer et al., 2023]; [Păunescu et al., 2021]). The Alamar blue viability assay was used as previously described ([Desiatkina et al., 2020], [2021], [2022a], [2022b]; [Holzer et al., 2023]; [Păunescu et al., 2021]). In short, resazurin was added to each well at 0.01 mg/ml, and subsequently fluorescence of the produced resorufin was measured at excitation wavelength 544/20 nm and emission wavelength 590/20 nm using a Hidex Sense microplate reader (Hidex, Turku, Finland)."}, "[2]": {"test_system": "zebrafish (Danio rerio) embryo", "experiment": "Zebrafish embryo acute toxicity test", "assay_type": "in vivo", "details": "for Malformations (No. embryos with malformations / fertilized embryos) / Mortality (No. of dead embryos / fertilized embryos) / Unaffected embryos (No. / fertilized embryos): 96 h", "description": "The zebrafish (Danio rerio) embryo acute toxicity test was carried out to assess the impact of RU-SDX on early embryo development as previously described ([Anghel et al., 2020]). RU-SDX was assessed at 0.2, 2 and 20 μM, while the bumped kinase inhibitor BKI-1748 (applied at 50 μM) was used as a positive control resulting in 100% mortality of zebrafish embryos ([Anghel et al., 2020]). For each test- and control condition, a 24 well plate containing 24 fertilized eggs (1 egg/well) was used. Negative control plates contained 1 ml of E3 medium/osmosis water, whereas eggs in solvent control plates were incubated in E3 medium containing 0.01% DMSO ([Anghel et al., 2020]). For each treatment, a survival rate was calculated that reflected the degree of either embryo death or malformations during the first 96 h of development in relation to eggs maintained without compound."}, "[3]": {"test_system": "T. gondii Me49 tachyzoites", "experiment": "Transmission electron microscopy of treated tachyzoites in HFF", "assay_type": "cell-based, Toxoplasma gondii", "details": "0.5 μM, 6 h of treatment", "description": "We examined the cellular ultrastructure of T. gondii tachyzoites treated with RU-SDX by TEM as described previously ([Anghel et al., 2021]; [Desiatkina et al., 2020]). Briefly, confluent HFF grown in T25 flasks were infected with 10^5 T. gondii Me49 tachyzoites, and infected cultures were maintained for 24 h at 37 °C/5% CO2. Subsequently, the medium was removed and medium containing 0.5 μM RU-SDX or 0.05% DMSO (as solvent control) was added, and cultures were maintained at 37 °C/5% CO2 during 6, 24 or 48 h. At the different timepoints the samples were fixed and processed for TEM ([Anghel et al., 2021]; [Desiatkina et al., 2020]). For this, cultures were washed with 0.1 M sodium cacodylate buffer (pH 7.3) and fixed in 2% glutaraldehyde in cacodylate buffer for 10 min at room temperature (RT). The fixed infected monolayers were gently scraped from the flasks, transferred into Eppendorf tubes, washed with in ice-cold 0.1 M sodium cacodylate buffer and fixed in 2% glutaraldehyde in cacodylate buffer for 2 h at RT. Further preparation steps included post-fixation in 2% osmium tetroxide, pre-staining, stepwise dehydration in ethanol, and embedding in Epon-812 resin. In some instances, T25 flasks containing HFF monolayers infected with T. gondii Me49 tachyzoites were treated with FCCP and CCCP for 10 min at 80 and 50 μM, respectively, and samples were prepared for TEM as described above. […]"}},
  "note": "pIC50: −log10 of the molar value.",
  "data": [
    {"smiles": "CC(C)(C)c1ccc(C[S-])cc1.CC(C)(C)c1ccc(C[S-])cc1.COc1ncnc(NS(=O)(=O)c2ccc(NC(=O)Cc3ccc([S-])cc3)cc2)c1OC.Cc1ccc(C(C)C)cc1.Cc1ccc(C(C)C)cc1.[Cl-].[Ru+2].[Ru+2]", "note": "[RU-SDX]", "values": [
      {"measurement": "T. gondii proliferation in relation to the non-treated control", "setting": "[1]; 0.1 μM", "value": 77, "unit": "%"},
      {"measurement": "T. gondii proliferation in relation to the non-treated control", "setting": "[1]; 1 μM", "value": 2, "unit": "%"},
      {"measurement": "proliferation (% of control ± SD)", "setting": "[1]; 2.5 μM", "value": "^∗∗∗0 ± 0%"},
      {"measurement": "proliferation (% of control ± SD)", "setting": "[1]; 5 μM", "value": "^∗∗∗0 ± 0%"},
      {"measurement": "pIC50", "setting": "[1]; drug treatment applied concomitantly to infection of HFF monolayers", "value": 6.95},
      {"measurement": "pIC50", "setting": "[1]; drug treatment initiated 3 h post infection, 95% CI in brackets", "value": 6.84},
      {"measurement": "pIC50", "setting": "[1]; drug treatment initiated concomitantly to infection, 95% CI in brackets", "value": 6.95},
      {"measurement": "pIC50", "setting": "[1]; drug treatment on already infected HFF", "value": 6.84},
      {"measurement": "pIC50", "setting": "[1]; tachyzoites grown in HFF monolayers, drug added concomitantly to or after infection", "value": "> 6.82"},
      {"measurement": "viability (% of control ± SD)", "setting": "HFF; 2.5 μM", "value": "79 ± 4", "unit": "%"},
      {"measurement": "viability (% of control ± SD)", "setting": "HFF; 5 μM", "value": "64 ± 4", "unit": "%"},
      {"measurement": "viability (% of control ± SD)", "setting": "HFF; 10 μM", "value": "31 ± 9", "unit": "%"},
      {"measurement": "survival score (surviving embryos without malformations)", "setting": "[2]; 0.2 μM", "value": 95, "unit": "%"},
      {"measurement": "Malformations (No. embryos with malformations / fertilized embryos)", "setting": "[2]; 0.2 μM", "value": "0/20"},
      {"measurement": "Mortality (No. of dead embryos / fertilized embryos)", "setting": "[2]; 0.2 μM", "value": "1/20"},
      {"measurement": "Unaffected embryos (No. / fertilized embryos)", "setting": "[2]; 0.2 μM", "value": "19/20"},
      {"measurement": "survival score (surviving embryos without malformations)", "setting": "[2]; 2 μM", "value": 90, "unit": "%"},
      {"measurement": "Malformations (No. embryos with malformations / fertilized embryos)", "setting": "[2]; 2 μM", "value": "1/20"},
      {"measurement": "Mortality (No. of dead embryos / fertilized embryos)", "setting": "[2]; 2 μM", "value": "1/20"},
      {"measurement": "Unaffected embryos (No. / fertilized embryos)", "setting": "[2]; 2 μM", "value": "18/20"},
      {"measurement": "survival score (surviving embryos without malformations)", "setting": "[2]; 20 μM", "value": "no surviving embryos"},
      {"measurement": "Malformations (No. embryos with malformations / fertilized embryos)", "setting": "[2]; 20 μM", "value": "0/20"},
      {"measurement": "Mortality (No. of dead embryos / fertilized embryos)", "setting": "[2]; 20 μM", "value": "20/20"},
      {"measurement": "Unaffected embryos (No. / fertilized embryos)", "setting": "[2]; 20 μM", "value": "0/20"},
      {"measurement": "time of peak of mortality of zebrafish embryos", "setting": "[2]; 20 μM, h of embryogenesis", "value": 72, "unit": "h"},
      {"measurement": "ultrastructural changes in tachyzoites (TEM)", "setting": "[3]", "value": "mitochondrial matrix appeared to have lost its characteristic electron dense texture in many areas"}
    ]}
  ]
}
